# System: SARS-CoV-2 clinical isolate Australia/VIC01/2020
# Assay: Multidose treatment of SARS-CoV-2 infected Vero/hSLAM or CALU-3 cells, viral load by real-time PCR
# Assay type: cell-based
# Settings: drug replaced at 8, 24, 32 and 48 h, Vero/hSLAM or CALU-3, MOI 0.01
# Description: Vero/hSLAM cells (FIG. 4, panels A/C) or CALU-3 (FIG. 4, panels B/D) cells were infected with SARS-CoV-2 clinical isolate Australia/VIC01/2020 (MOI=0.01) for 2 h prior to addition of vehicle (DMSO), Ivermectin (A/B) or Moxidectin (C/D) at the concentrations indicated in FIG. 4. Supernatant was harvested at 8, 24, 32 and 48 h and replaced with fresh media containing the same concentration of drug or DMSO. Samples were quantitated for viral load using real-time PCR. Results represent mean±SD (n=6) relative to DMSO alone under the same conditions. Three parameter dose response curves were fitted using GraphPad prism. The data presented in FIG. 4 are single typical graphs from a series of two similar experiments.
substance,measurement,value
ivermectin,effect of multidose treatment on SARS-CoV-2 anti-viral activity,enhances SARS-CoV-2 anti-viral activity compared to single treatment

# Reference: patent US11364256B2, “Viral inhibition” (Monash University, priority 2020, dated 2022)
